According to patent US7683057B2, “Kinase inhibitor compounds” (Tyrogenex, Inc., priority 2007, dated 2010):

system: AMPK; experiment: not given; conditions: proteomic study, literature; cited from earlier work

Row | SMILES | inhibition of AMPK
1 | Cc1[nH]c(/C=C2\C(=O)Nc3ccccc32)c(C)c1CCC(=O)O [SU6668] | inhibits

system: AMPK (r); experiment: AMPK Biochemical Assay; design: species or system rat; conditions: compared with sunitinib
Description: The compounds are assayed for biochemical activity essentially according to the following procedure. In a final reaction volume of 25 μl, AMPK (r) (5-10 mU) is incubated with 32 mM HEPES pH7.4, 0.65 mM DTT, 0.012% Brij-35, 200 μM AMP, 200 μM AMARAASAAALARRR, 10 mM MgAcetate and [(γ-33P-ATP] (specific activity approx. 500 cpm/pmol, concentration as required). The reaction is initiated by the addition of the MgATP mix. After incubation for 40 minutes at room temperature, the reaction is stopped by the addition of 5 μl of a 3% phosphoric acid solution. 10 μl of the reaction is then spotted onto a P30 filtermat and washed three times for 5 minutes in 75 mM phosphoric acid and once in methanol prior to drying and scintillation counting.

Row | SMILES | AMPK inhibitory activities
2 | Cc1[nH]c(/C=C2\C(=O)Nc3ccc(F)cc32)c(C)c1C(=O)NC1CS(=O)(=O)CC1O (stereo not drawn) [Example 17, 5-[5-Fluoro-2-oxo-1,2-dihydro-indol-(3Z)-ylidenemethyl]-2,4-dimethyl-1H-pyrrole-3-carboxylic acid (4-hydroxy-1,1-dioxo-tetrahydro-thiophen-3-yl)-amide] | significantly less AMPK inhibitory activities than sunitinib
3 | Cc1[nH]c(/C=C2\C(=O)Nc3ccc(F)cc32)c(C)c1C(=O)NC1CCN(C(=O)CO)CC1 [Example 22, 5-[5-Fluoro-2-oxo-1,2-dihydro-indol-(3Z)-ylidenemethyl]-2,4-dimethyl-1H-pyrrole-3-carboxylic acid [1-(2-hydroxy-acetyl)-piperidin-4-yl]-amide] | significantly less AMPK inhibitory activities than sunitinib
4 | Cc1[nH]c(/C=C2\C(=O)Nc3ccc(F)cc32)c(C)c1C(=O)N[C@H]1CCNC1=O [Example 25, 5-[5-Fluoro-2-oxo-1,2-dihydro-indol-(3Z)-ylidenemethyl]-2,4-dimethyl-1H-pyrrole-3-carboxylic acid ((S)-2-oxo-pyrrolidin-3-yl)-amide] | significantly less AMPK inhibitory activities than sunitinib
5 | Cc1[nH]c(/C=C2\C(=O)Nc3ccc(F)cc32)c(C)c1C(=O)N[C@H]1CCN(C(=O)C(=O)N(C)C)C1 [Example 29, 5-[5-Fluoro-2-oxo-1,2-dihydro-indol-(3Z)-ylidenemethyl]-2,4-dimethyl-1H-pyrrole-3-carboxylic acid ((S)-1-dimethylaminooxalyl-pyrrolidin-3-yl)-amide] | significantly less AMPK inhibitory activities than sunitinib
6 | Cc1[nH]c(/C=C2\C(=O)Nc3ccc(F)cc32)c(C)c1C(=O)N[C@H]1CC[C@@H](C(=O)N2CCOCC2)CC1 [Example 30, 5-[5-Fluoro-2-oxo-1,2-dihydro-indol-(3Z)-ylidenemethyl]-2,4-dimethyl-1H-pyrrole-3-carboxylic acid [4-(morpholine-4-carbonyl)-cyclohexyl]-amide] | significantly less AMPK inhibitory activities than sunitinib
7 | Cc1[nH]c(/C=C2\C(=O)Nc3ccc(F)cc32)c(C)c1C(=O)N[C@H]1CC[C@@H](C(=O)N2CCCC2)CC1 [Example 31, 5-[5-Fluoro-2-oxo-1,2-dihydro-indol-(3Z)-ylidenemethyl]-2,4-dimethyl-1H-pyrrole-3-carboxylic acid [4-(pyrrolidine-1-carbonyl)-cyclohexyl]-amide] | significantly less AMPK inhibitory activities than sunitinib
8 | Cc1[nH]c(/C=C2\C(=O)Nc3ccc(F)cc32)c(C)c1C(=O)N[C@@H]1CCC[C@@H]1C(=O)N1CCCC1 [Example 36, 5-[5-Fluoro-2-oxo-1,2-dihydro-indol-(3Z)-ylidenemethyl]-2,4-dimethyl-1H-pyrrole-3-carboxylic acid [(1R,2S)-2-(pyrrolidine-1-carbonyl)-cyclopentyl]-amide] | significantly less AMPK inhibitory activities than sunitinib
9 | Cc1[nH]c(/C=C2\C(=O)Nc3ccc(F)cc32)c(C)c1C(=O)N[C@@H]1CON(C2CCOCC2)C1=O [Example 48, 5-[5-Fluoro-2-oxo-1,2-dihydro-indol-(3Z)-ylidenemethyl]-2,4-dimethyl-1H-pyrrole-3-carboxylic acid [(R)-3-oxo-2-(tetrahydro-pyran-4-yl)-isoxazolidin-4-yl]-amide] | significantly less AMPK inhibitory activities than sunitinib
